Test results published in patent publication US9751886B2, “4-amino-6-phenyl-6,7-dihydro[1,2,3]triazolo[1,5-A]pyrazine derivatives as inhibitors of beta-secretase (BACE)” (Janssen Pharmaceutica NV, priority 2013, dated 2017).

Columns and labels:
[1] = target: recombinant BACE1 protein (Homo sapiens (Human), UniProt P56817); assay: BACE1 Biochemical FRET based assay - Method 1; details: 1 μg/ml BACE1, 10 μM substrate, 120 min, pH 5.0; read-out: BACE1 Biochemical FRET based assay - Method 1 pIC50 (converted)
recombinant BACE1 protein, sequence (P56817 46-501): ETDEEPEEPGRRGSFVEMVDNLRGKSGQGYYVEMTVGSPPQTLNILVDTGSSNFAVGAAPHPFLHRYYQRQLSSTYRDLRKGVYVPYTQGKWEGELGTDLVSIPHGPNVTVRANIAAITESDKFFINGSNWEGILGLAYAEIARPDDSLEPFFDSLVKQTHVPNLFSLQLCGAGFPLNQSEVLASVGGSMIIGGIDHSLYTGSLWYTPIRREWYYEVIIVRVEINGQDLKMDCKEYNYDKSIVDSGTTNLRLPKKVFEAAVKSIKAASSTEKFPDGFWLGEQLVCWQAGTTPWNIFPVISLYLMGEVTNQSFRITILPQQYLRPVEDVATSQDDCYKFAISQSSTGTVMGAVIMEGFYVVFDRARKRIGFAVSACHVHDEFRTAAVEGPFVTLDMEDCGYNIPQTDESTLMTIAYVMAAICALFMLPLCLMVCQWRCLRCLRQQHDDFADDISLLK
Source text: This assay is a Fluorescence Resonance Energy Transfer Assay (FRET) based assay. The substrate for this assay is an APP derived 13 amino acids peptide that contains the ‘Swedish’ Lys-Met/Asn-Leu mutation of the amyloid precursor protein (APP) beta-secretase cleavage site. This substrate also contains two fluorophores: (7-methoxycoumarin-4-yl) acetic acid (Mca) is a fluorescent donor with excitation wavelength at 320 nm and emission at 405 nm and 2,4-Dinitrophenyl (Dnp) is a proprietary quencher acceptor. […] Upon cleavage by BACE1, the fluorophore Mca is separated from the quenching group Dnp, restoring the full fluorescence yield of the donor. The increase in fluorescence is linearly related to the rate of proteolysis.
Briefly in a 384-well format recombinant BACE1 protein in a final concentration of 1 μg/ml is incubated for 120 minutes at room temperature with […] substrate in incubation buffer (40 mM Citrate buffer pH 5.0, 0.04% PEG, 4% DMSO) in the absence or presence of compound. Next the amount of proteolysis is directly measured by fluorescence measurement at T=0 and T=120 (excitation at 320 nm and emission at 405 nm). Results are expressed in RFU (Relative Fluorescence Units), as difference between T120 and TO.

[2] = system: brain levels of soluble Aβ42, Aβ40; assay: In vivo Aβ lowering in non-transgenic rodents (MSD electrochemiluminescence); set-up: species or system mouse; details: dose 10, s.c., untreated control = 100
Source text: To determine whether acute administration of an Aβ lowering agent would reduce Aβ levels in vivo, non-transgenic rodents, e.g. mice or rats were used. Animals treated with the Aβ lowering agent were examined and compared to those untreated or treated with vehicle and brain levels of soluble Aβ42, Aβ40, Aβ38, and Aβ37 were quantitated by Meso Scale Discovery's (MSD) electrochemiluminescence detection technology. Treatment periods varied from hours (h) to days and were adjusted based on the results of the Aβ lowering once a time course of onset of effect could be established.
A typical protocol for measuring Aβ lowering in vivo is shown but it is only one of many variations that could be used to optimize the levels of detectable A. For example, Aβ lowering compounds were formulated in 20% of Captisol® (a sulfo-butyl ether of β-cyclodextrin) in water or 20% hydroxypropyl β cyclodextrin. The Aβ lowering agents were administered as a single oral dose or by any acceptable route of administration to overnight fasted animals. […]
Blood was collected by decapitation and exsanguinations in EDTA-treated collection tubes. Blood was centrifuged at 1900 g for 10 minutes (min) at 4° C. and the plasma recovered and flash frozen for later analysis. The brain was removed from the cranium and hindbrain. The cerebellum was removed and the left and right hemisphere were separated. The left hemisphere was stored at −18° C. for quantitative analysis of test compound levels. The right hemisphere was rinsed with phosphate-buffered saline (PBS) buffer and immediately frozen on dry ice and stored at −80° C. until homogenization for biochemical assays.
Mouse brains from non-transgenic animals were resuspended in 8 volumes of 0.4% DEA (diethylamine)/50 mM NaCl containing protease inhibitors (Roche-11873580001 or 04693159001) per gram of tissue, e.g. for 0.158 g brain, add 1.264 ml of 0.4% DEA. All samples were homogenized in the FastPrep-24 system (MP Biomedicals) using lysing matrix D (MPBio #6913-100) at 6 m/s for 20 seconds. Homogenates were centrifuged at 20800×g for 5 min and supernatants collected. Supernatants were centrifuged at 221.300×g for 50 min. The resulting high speed supernatants were then transferred to fresh eppendorf tubes. Nine parts of supernatant were neutralized with 1 part 0.5 M Tris-HCl pH 6.8 and used to quantify Aβ.
To quantify the amount of Aβ42, Aβ40, Aβ38, and Aβ37 in the soluble fraction of the brain homogenates, simultaneous specific detection of Aβ42, Aβ40, Aβ38, and Aβ37 was performed using MSD's electro-chemiluminescence multiplex detection technology. In this assay purified monoclonal antibodies specific for Abeta37 (JRD/Aβ37/3), Abeta38 (J&JPRD/Aβ38/5), Abeta40 (JRF/cAβ40/28), and Abeta42 (JRF/cAβ(342/26) were coated on MSD 4-plex plates. Briefly, the standards (a dilution of synthetic Aβ42, Aβ40, Aβ38, and Aβ37) were prepared in 1.5 ml Eppendorf tube in Ultraculture, with final concentrations ranging from 10000 to 0.3 pg/m. The samples and standards were co-incubated with Sulfo-tag labelled JRF/rAβ/2 antibody to the N-terminus of Aβ as detector antibody. 50 μl of conjugate/sample or conjugate/standards mixtures were then added to the antibody-coated plate. The plate was allowed to incubate overnight at 4° C. in order to allow formation of the antibody-amyloid complex. Following this incubation and subsequent wash steps the assay was finished by adding read buffer according to the manufacturer's instructions (Meso Scale Discovery, Gaitherburg, Md.).
The SULFO-TAG emits light upon electrochemical stimulation initiated at the electrode. MSD Sector instrument SI6000 was used for signal read-out.
The results are shown in Table 8 (value for untreated animals as control (Ctrl) was set at 100): […]

## C[C@@]1(c2cc(NC(=O)c3ccc(F)cn3)ccc2F)Cn2nncc2C(N)=N1 [Compound 1, N-{3-[(6R)-4-amino-6-methyl-6,7-dihydro[1,2,3]triazolo[1,5-a]pyrazin-6-yl]-4-fluorophenyl}-5-fluoropyridine-2-carboxamide]
[1]
  IC50: 5.25 nM
[2]; 2 h after administration
  Aβ40 (% vs Ctrl)_Mean: 47 % vs Ctrl
  Aβ42 (% vs Ctrl)_Mean: 47 % vs Ctrl
[2]; 4 h after administration
  Aβ40 (% vs Ctrl)_Mean: 73 % vs Ctrl
  Aβ42 (% vs Ctrl)_Mean: 55 % vs Ctrl
